Target: Hepatocyte growth factor receptor (Homo sapiens, UniProt P08581)
Assay: Inhibition of cMet (unknown origin) using poly (Glu, Tyr) 4:1 as substrate after 30 mins by HTRF assay
Details: not given

Hepatocyte growth factor receptor, sequence (P08581 whole entry): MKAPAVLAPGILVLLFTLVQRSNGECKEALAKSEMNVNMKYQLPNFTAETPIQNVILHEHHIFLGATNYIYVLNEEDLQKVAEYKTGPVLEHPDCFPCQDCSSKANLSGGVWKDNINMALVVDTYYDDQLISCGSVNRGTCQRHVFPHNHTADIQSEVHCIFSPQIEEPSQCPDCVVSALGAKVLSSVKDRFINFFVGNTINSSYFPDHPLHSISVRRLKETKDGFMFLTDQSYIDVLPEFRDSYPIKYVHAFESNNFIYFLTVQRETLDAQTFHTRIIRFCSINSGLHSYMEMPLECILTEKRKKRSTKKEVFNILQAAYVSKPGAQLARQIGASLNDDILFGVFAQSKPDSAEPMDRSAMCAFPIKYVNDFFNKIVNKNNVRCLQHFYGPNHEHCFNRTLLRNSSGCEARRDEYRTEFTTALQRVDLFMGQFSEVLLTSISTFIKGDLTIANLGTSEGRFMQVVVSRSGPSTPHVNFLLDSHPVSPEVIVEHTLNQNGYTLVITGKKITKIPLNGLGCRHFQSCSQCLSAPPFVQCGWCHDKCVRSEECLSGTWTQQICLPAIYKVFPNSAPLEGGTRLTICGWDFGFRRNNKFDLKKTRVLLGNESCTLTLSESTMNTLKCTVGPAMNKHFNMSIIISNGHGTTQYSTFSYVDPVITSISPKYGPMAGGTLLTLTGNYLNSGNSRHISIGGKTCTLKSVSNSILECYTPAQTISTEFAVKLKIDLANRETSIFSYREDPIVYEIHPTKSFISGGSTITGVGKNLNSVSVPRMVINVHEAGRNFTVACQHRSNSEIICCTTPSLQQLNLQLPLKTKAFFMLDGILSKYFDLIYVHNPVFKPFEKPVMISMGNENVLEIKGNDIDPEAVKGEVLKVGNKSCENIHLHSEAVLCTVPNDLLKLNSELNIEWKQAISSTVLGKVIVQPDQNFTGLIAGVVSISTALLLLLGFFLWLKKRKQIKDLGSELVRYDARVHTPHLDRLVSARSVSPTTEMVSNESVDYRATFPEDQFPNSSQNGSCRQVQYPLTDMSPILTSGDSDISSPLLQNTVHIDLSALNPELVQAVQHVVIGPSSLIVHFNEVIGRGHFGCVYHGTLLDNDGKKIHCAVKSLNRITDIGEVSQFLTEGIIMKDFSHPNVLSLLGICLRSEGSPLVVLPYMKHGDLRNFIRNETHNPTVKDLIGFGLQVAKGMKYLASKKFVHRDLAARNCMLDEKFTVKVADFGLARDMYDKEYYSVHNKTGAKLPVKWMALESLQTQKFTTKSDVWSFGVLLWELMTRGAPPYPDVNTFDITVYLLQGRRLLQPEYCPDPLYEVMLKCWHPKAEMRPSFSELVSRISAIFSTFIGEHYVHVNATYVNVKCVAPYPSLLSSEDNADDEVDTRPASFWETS

Structure (SMILES)	IC50 [nM]
COc1cc2c(Oc3ccc(NC(=O)c4c(Cl)c5ccccc5n(-c5ccc(F)cc5)c4=O)cc3F)ccnc2cc1OCCCN1CCCCC1	12.2
COc1cc2c(Oc3ccc(NC(=O)c4c(Cl)c5ccccc5n(-c5ccc(F)cc5)c4=O)cc3F)ccnc2cc1OCCCN1CCC(C)CC1	3.26
COc1cc2c(Oc3ccc(NC(=O)c4c(Cl)c5ccccc5n(-c5ccccc5)c4=O)cc3F)ccnc2cc1OCCCN1CCN(C)CC1	1.75

System: HT-29
Assay: cells
Details: Homo sapiens, HT-29, 72 h
Description: Cytotoxicity against human HT-29 cells assessed as cell growth inhibition after 72 hrs by MTT assay

Structure (SMILES)	IC50 [nM]
COc1cc2c(Oc3ccc(NC(=O)c4c(Cl)c5ccccc5n(-c5ccc(C)cc5)c4=O)cc3F)ccnc2cc1OCCCN1CCOCC1	390
COc1cc2c(Oc3ccc(NC(=O)c4c(Cl)c5ccccc5n(-c5ccccc5OC(F)(F)F)c4=O)cc3F)ccnc2cc1OCCCN1CCCC1	1500
COc1cc2c(Oc3ccc(NC(=O)c4c(Cl)c5ccccc5n(-c5ccccc5)c4=O)cc3F)ccnc2cc1OCCCN1CCCC1	390
COc1cc2c(Oc3ccc(NC(=O)c4c(Cl)c5ccccc5n(-c5ccc(F)cc5)c4=O)cc3F)ccnc2cc1OCCCN1CCCCC1	290
COc1cc2c(Oc3ccc(NC(=O)c4c(Cl)c5ccccc5n(-c5ccc(F)cc5)c4=O)cc3F)ccnc2cc1OCCCN1CCC(C)CC1	110
COc1cc2c(Oc3ccc(NC(=O)c4c(Cl)c5ccccc5n(-c5ccccc5)c4=O)cc3F)ccnc2cc1OCCCN1CCN(C)CC1	91

System: not listed separately
Assay: cells
Details: Homo sapiens, NCI-H460, 72 h
Description: Cytotoxicity against human H460 cells assessed as cell growth inhibition after 72 hrs by MTT assay

Structure (SMILES)	IC50 [nM]
COc1cc2c(Oc3ccc(NC(=O)c4c(Cl)c5ccccc5n(-c5ccc(C)cc5)c4=O)cc3F)ccnc2cc1OCCCN1CCOCC1	850
COc1cc2c(Oc3ccc(NC(=O)c4c(Cl)c5ccccc5n(-c5ccccc5OC(F)(F)F)c4=O)cc3F)ccnc2cc1OCCCN1CCCC1	360
COc1cc2c(Oc3ccc(NC(=O)c4c(Cl)c5ccccc5n(-c5ccccc5)c4=O)cc3F)ccnc2cc1OCCCN1CCCC1	210
COc1cc2c(Oc3ccc(NC(=O)c4c(Cl)c5ccccc5n(-c5ccc(F)cc5)c4=O)cc3F)ccnc2cc1OCCCN1CCCCC1	110
COc1cc2c(Oc3ccc(NC(=O)c4c(Cl)c5ccccc5n(-c5ccc(F)cc5)c4=O)cc3F)ccnc2cc1OCCCN1CCC(C)CC1	89
COc1cc2c(Oc3ccc(NC(=O)c4c(Cl)c5ccccc5n(-c5ccccc5)c4=O)cc3F)ccnc2cc1OCCCN1CCN(C)CC1	61

System: not listed separately
Assay: cells
Details: Homo sapiens, MKN-45, 72 h
Description: Cytotoxicity against human MKN45 cells assessed as cell growth inhibition after 72 hrs by MTT assay

Structure (SMILES)	IC50 [nM]
COc1cc2c(Oc3ccc(NC(=O)c4c(Cl)c5ccccc5n(-c5ccc(C)cc5)c4=O)cc3F)ccnc2cc1OCCCN1CCOCC1	780
COc1cc2c(Oc3ccc(NC(=O)c4c(Cl)c5ccccc5n(-c5ccccc5OC(F)(F)F)c4=O)cc3F)ccnc2cc1OCCCN1CCCC1	1400
COc1cc2c(Oc3ccc(NC(=O)c4c(Cl)c5ccccc5n(-c5ccccc5)c4=O)cc3F)ccnc2cc1OCCCN1CCCC1	210
COc1cc2c(Oc3ccc(NC(=O)c4c(Cl)c5ccccc5n(-c5ccc(F)cc5)c4=O)cc3F)ccnc2cc1OCCCN1CCCCC1	310
COc1cc2c(Oc3ccc(NC(=O)c4c(Cl)c5ccccc5n(-c5ccc(F)cc5)c4=O)cc3F)ccnc2cc1OCCCN1CCC(C)CC1	160
COc1cc2c(Oc3ccc(NC(=O)c4c(Cl)c5ccccc5n(-c5ccccc5)c4=O)cc3F)ccnc2cc1OCCCN1CCN(C)CC1	120

System: not listed separately
Assay: Cytotoxicity against human U87MG cells assessed as cell growth inhibition after 72 hrs by MTT assay
Type: functional, cell-based, U-87MG ATCC
Details: U-87 MG

Structure (SMILES)	IC50 [nM]
COc1cc2c(Oc3ccc(NC(=O)c4c(Cl)c5ccccc5n(-c5ccc(C)cc5)c4=O)cc3F)ccnc2cc1OCCCN1CCOCC1	5160
COc1cc2c(Oc3ccc(NC(=O)c4c(Cl)c5ccccc5n(-c5ccccc5)c4=O)cc3F)ccnc2cc1OCCCN1CCCC1	1600
COc1cc2c(Oc3ccc(NC(=O)c4c(Cl)c5ccccc5n(-c5ccc(F)cc5)c4=O)cc3F)ccnc2cc1OCCCN1CCCCC1	1600
COc1cc2c(Oc3ccc(NC(=O)c4c(Cl)c5ccccc5n(-c5ccc(F)cc5)c4=O)cc3F)ccnc2cc1OCCCN1CCC(C)CC1	1920

System: A549
Assay: Cytotoxicity against human A549 cells assessed as cell growth inhibition after 72 hrs by MTT assay
Type: functional, cell-based
Details: A549, 72 h

Structure (SMILES)	IC50 [nM]
COc1cc2c(Oc3ccc(NC(=O)c4c(Cl)c5ccccc5n(-c5ccc(C)cc5)c4=O)cc3F)ccnc2cc1OCCCN1CCOCC1	830
COc1cc2c(Oc3ccc(NC(=O)c4c(Cl)c5ccccc5n(-c5ccccc5)c4=O)cc3F)ccnc2cc1OCCCN1CCCC1	810
COc1cc2c(Oc3ccc(NC(=O)c4c(Cl)c5ccccc5n(-c5ccc(F)cc5)c4=O)cc3F)ccnc2cc1OCCCN1CCCCC1	160
COc1cc2c(Oc3ccc(NC(=O)c4c(Cl)c5ccccc5n(-c5ccc(F)cc5)c4=O)cc3F)ccnc2cc1OCCCN1CCC(C)CC1	990
